This note sets out measurements from US10391095B2, “DNA-PK inhibitors” (Vertex Pharmaceuticals Incorporated, priority 2012, dated 2019).

The test concerns the target DNA-PK (Homo sapiens, UniProt P78527). Put plainly: DNA-PK inhibition assay (radiometric, 33P-ATP). It is filed as biochemical. To be noted: 100 μM ATP, competitive tight-binding fit. On the procedure:
Compounds were screened for their ability to inhibit DNA-PK kinase using a standard radiometric assay. Briefly, in this kinase assay the transfer of the terminal ^33P-phosphate in ^33P-ATP to a peptide substrate is interrogated. The assay was carried out in 384-well plates to a final volume of 50 μL per well containing approximately 6 nM DNA-PK, 50 mM HEPES (pH 7.5), 10 mM MgCl2, 25 mM NaCl, 0.01% BSA, 1 mM DTT, 10 μg/mL sheared double-stranded DNA (obtained from Sigma), 0.8 mg/mL DNA-PK peptide ([…] obtained from American Peptide), and 100 μM ATP. Accordingly, compounds of the invention were dissolved in DMSO to make 10 mM initial stock solutions. Serial dilutions in DMSO were then made to obtain the final solutions for the assay. A 0.75 μL aliquot of DMSO or inhibitor in DMSO was added to each well, followed by the addition of ATP substrate solution containing ^33P-ATP (obtained from Perkin Elmer). The reaction was started by the addition of DNA-PK, peptide and ds-DNA. After 45 min, the reaction was quenched with 25 μL of 5% phosphoric acid. The reaction mixture was transferred to MultiScreen HTS 384-well PH plates (obtained from Millipore), allowed to bind for one hour, and washed three times with 1% phosphoric acid. Following the addition of 50 μL of Ultima Gold™ high efficiency scintillant (obtained from Perkin Elmer), the samples were counted in a Packard TopCount NXT Microplate Scintillation and Luminescence Counter (Packard BioScience). The Ki values were calculated using Microsoft Excel Solver macros to fit the data to the kinetic model for competitive tight-binding inhibition.

By Ki is commonly meant a dissociation constant, usually derived from enzyme kinetics or from competition with a known ligand. Read a high Ki as a looser hold on the target. Compound `CNC(=O)c1ccnc2c([C@H](C)CNc3cc(-c4ccc(N5CC(CO)C5)nc4)ncn3)cccc12` [Compound 736] yielded an inhibition constant Ki of less than 30 nM.

The compound `CC(CNc1cc(-c2cnc3c(cnn3CCO)c2)ncn1)c1cccc2scnc12` (stereo not drawn) [Compound 402] had a Ki of less than 30 nM.

`CNC(=O)c1ccc([C@H](C)CNc2cc(-c3ccc(N(C)C4CCN(C)CC4)nc3)ncn2)c(OC)c1` [Compound 347] displayed a Ki of less than 30 nM.

For the compound `CNC(=O)c1ccnc2c([C@H](C)CNc3cc(-c4ccc(NC5CC5)nc4)ncn3)ccc(F)c12` [Compound 943], the Ki was less than 30 nM.

Regarding `CNC(=O)c1ccnc2c([C@H](C)CNc3cc(-c4cnc(CO)c(OC)c4)ncn3)ccc(F)c12` [Compound 916], the Ki is less than 30 nM.

Compound `CC(CNc1cc(-c2ccc(N3CCN(C)CC3)nc2)ncn1)c1cnccc1OC1CC1` (stereo not drawn) [Compound 177] came in with a Ki of less than 30 nM.

Compound `CNC(=O)c1c(-n2ccnc2)cnc2c([C@H](C)CNc3cc(-c4ccc(C)nc4)ncn3)cccc12` [Compound 763] gave an inhibitory constant (Ki) of less than 30 nM.

For `CNC(=O)c1ccnc2c([C@H](C)CNc3cc(-c4ccc(C(C)C)nc4)ncn3)ccc(F)c12` [Compound 853], the inhibitory constant (Ki) is less than 30 nM.

Turning to `COc1ccccc1[C@H](C)CNc1cc(-c2ccc3ncccc3c2)ncn1` [Compound 80], the Ki is less than 30 nM.

In the case of `CNC(=O)c1ccc([C@H](C)CNc2cc(-c3ccc4c(c3)CNC4=O)ncn2)c(OC)c1` [Compound 312], the Ki was less than 30 nM.

In turn, `CC(CNc1cc(-c2cnc3c(cnn3CCO)c2)ncn1)c1csc2cccnc12` (stereo not drawn) [Compound 399] registered a Ki of less than 30 nM.

In turn, `Cc1ccc(-c2cc(NC[C@@H](C)c3cccc4c(CO)ccnc34)ncn2)cn1` [Compound 568] gave an inhibitory constant (Ki) of less than 30 nM.

Compound `CC(=O)N1CCN(c2ccc(-c3cc(NCC(C)c4ccccc4O)ncn3)cn2)CC1` (stereo not drawn) [Compound 136] showed a Ki of less than 30 nM.

Regarding `CNC(=O)c1ccc([C@H](C)CNc2cc(-c3ccc(NCC(F)F)nc3)ncn2)c(OC)c1` [Compound 390], the Ki was less than 30 nM.

`CNC(=O)c1ccnc2c([C@H](C)CNc3cc(-c4cnc(N5CCOCC5)nc4)ncn3)cccc12` [Compound 650]: the Ki was less than 30 nM.

`CNC(=O)c1ccc([C@H](C)CNc2cc(-c3ccc(F)nc3)ncn2)c(OC)c1` [Compound 328] came in with an inhibition constant Ki of less than 30 nM.

In turn, `COc1ccccc1[C@H](C)CNc1cc(-c2ccnc(Nc3nn[nH]n3)c2)ncn1` [Compound 211] returned an inhibition constant (Ki) of less than 30 nM.

Compound `CCNc1ccc(-c2cc(NC[C@@H](C)c3cccc4c(C(=O)NC)ccnc34)ncn2)cn1` [Compound 581] returned a Ki of less than 30 nM.

The compound `CNC(=O)c1ccnc2c([C@H](C)CNc3cc(-c4ccc(C5CCC5)nc4)ncn3)ccc(F)c12` [Compound 850] gave an inhibitory constant (Ki) of less than 30 nM.

The compound `Cc1ccc(-c2cc(NCC(C)c3ccccc3OC3CCC3)ncn2)cn1` (stereo not drawn) [Compound 240] displayed an inhibitory constant (Ki) of less than 30 nM.

Compound `CCNc1ccc(-c2cc(NC[C@@H](C)c3ccnc4c3OCC4)ncn2)cn1` [Compound 486] yielded an inhibition constant Ki of less than 30 nM.

`COCCn1ncc2cc(-c3cc(NCC(C)c4cscc4OC)ncn3)cnc21` (stereo not drawn) [Compound 227] came in with an inhibitory constant (Ki) of less than 30 nM.

Consider `CNC(=O)c1ccnc2c([C@H](C)CNc3cc(-c4ccc(C#N)cc4)ncn3)cccc12` [Compound 683], for which the Ki was less than 30 nM.

`COc1ccccc1[C@H](C)CNc1cc(-c2cnc3c(cnn3C3CN(C(C)=O)C3)c2)ncn1` [Compound 249]: the inhibitory constant (Ki) was less than 30 nM.

`Cc1ccc(-c2cc(NCC(C)c3ccccc3OCC3CCCC3)ncn2)cn1` (stereo not drawn) [Compound 194] yielded a Ki of less than 30 nM.

In turn, `CCS(=O)(=O)c1ccc(-c2cc(NC[C@@H](C)c3cccc4c(C(=O)NC)ccnc34)ncn2)cc1` [Compound 676] yielded a Ki of less than 30 nM.

In the case of `CNCCCNc1cc(-c2cc(NC[C@@H](C)c3ccccc3OC)ncn2)ccn1` [Compound 209], the inhibition constant (Ki) was less than 30 nM.

`C[C@H](CNc1cc(-c2cc(C(F)(F)F)c3ncccc3c2)ncn1)c1ccnc2c1OCCO2` [Compound 557]: the Ki was less than 30 nM.

Compound `CNC(=O)c1ccnc2c([C@H](C)CNc3cc(-c4ccc(OC(C)(C)C)cc4)ncn3)cccc12` [Compound 755] returned a Ki of less than 30 nM.

In the case of `COc1ccccc1CCNc1cc(-c2cnc3c(cnn3C3CCN(C)CC3)c2)ncn1` [Compound 82], the Ki is less than 30 nM.

Turning to `CNC(=O)c1ccnc2c([C@H](C)CNc3cc(-c4ccc(N5Cc6ccncc6C5)nc4)ncn3)cccc12` [Compound 718], the inhibition constant (Ki) is less than 30 nM.

As to `CC(CNc1cc(-c2cnc3c(cnn3CCO)c2)ncn1)c1cncc2c1OCCC2` (stereo not drawn) [Compound 452], the Ki was less than 30 nM.

`CNC(=O)c1c(F)cnc2c([C@H](C)CNc3cc(-c4ccc(C5(N)CC5)nc4)ncn3)cccc12` [Compound 941] came in with a Ki of less than 30 nM.

The compound `CNC(=O)c1ccnc2c([C@H](C)CNc3cc(-c4cnc(COC)nc4)ncn3)cccc12` [Compound 886] displayed an inhibition constant Ki of less than 30 nM.

With `CNC(=O)c1ccnc2c([C@H](C)CNc3cc(-c4ccc(NCCN5CCNC5=O)nc4)ncn3)cccc12` [Compound 719], the inhibition constant (Ki) was less than 30 nM.

For `COc1ccccc1[C@H](C)CNc1cc(-c2ccc(N(C)C3CCN(C)CC3)nc2)ncn1` [Compound 223], the Ki was less than 30 nM.

`CCOC(=O)c1ccc(-c2cc(NC[C@@H](C)c3cccc4c(C(=O)NC)ccnc34)ncn2)o1` [Compound 795]: the inhibitory constant (Ki) is less than 30 nM.

In turn, `CNC(=O)c1ccnc2c([C@H](C)CNc3cc(-c4ccc(OCC5CC5)nc4)ncn3)ccc(F)c12` [Compound 904] came in with a Ki of less than 30 nM.

`COc1ccccc1[C@H](C)CNc1cc(-c2ccc(N(C)C)nc2)ncn1` [Compound 255] yielded an inhibition constant (Ki) of less than 30 nM.

`Cc1ccc(-c2cc(NCC(C)c3cccc4scnc34)ncn2)cn1` (stereo not drawn) [Compound 333] returned an inhibition constant Ki of less than 30 nM.

As for `CCNC(=O)Cn1ncc2cc(-c3cc(NC[C@@H](C)c4ccccc4OC)ncn3)cnc21` [Compound 147], the Ki was less than 30 nM.

`CNC(=O)c1ccc(C(C)CNc2cc(-c3ccc(C4(CO)CC4)cc3)ncn2)c(OC)c1` (stereo not drawn) [Compound 338] came in with a Ki of less than 30 nM.

`CNC(=O)c1ccnc2c([C@H](C)CNc3cc(-c4ccc(C(=O)N5CCN(C)CC5)cc4)ncn3)cccc12` [Compound 770] showed a Ki of less than 30 nM.

In turn, `CNC(=O)c1c(-n2ccc(C)n2)cnc2c([C@H](C)CNc3cc(-c4ccc(C)nc4)ncn3)cccc12` [Compound 740] gave an inhibition constant Ki of less than 30 nM.

For `COc1ccccc1[C@H](C)CNc1cc(-c2ccc(NC(CO)CO)nc2)ncn1` [Compound 199], the Ki is less than 30 nM.

In turn, `COc1cc(F)c(F)cc1[C@H](C)CNc1cc(-c2ccc(C)nc2)ncn1` [Compound 128] displayed a Ki of less than 30 nM.

The compound `CNC(=O)c1ccnc2c([C@H](C)CNc3cc(-c4cncc(C#N)c4)ncn3)cccc12` [Compound 868] registered a Ki of less than 30 nM.

Compound `CNCCN(C)c1ccc(-c2cc(NC[C@@H](C)c3ccc(C(=O)NC)cc3OC)ncn2)cn1` [Compound 368] displayed a Ki of less than 30 nM.

Regarding `CCOc1ncc(-c2cc(NC[C@@H](C)c3cccc4c(C(=O)NC)ccnc34)ncn2)cn1` [Compound 607], the Ki was less than 30 nM.

In the case of `COc1cc(N)ccc1C(C)CNc1cc(-c2ccc(C)nc2)ncn1` (stereo not drawn) [Compound 178], the Ki is less than 30 nM.

Consider `CNC(=O)c1ccnc2c([C@H](C)CNc3cc(-c4ccc(C(=O)N(C)C)s4)ncn3)cccc12` [Compound 777], for which the Ki is less than 30 nM.
